Patent US20220401564A1 (DANA-FARBER CANCER INSTITUTE, INC., priority 2019, published 2022)
pIC50: −log10 of the molar value. “Also recorded” adds a separate entry of the source.

How the values were obtained:
[1] = tested on: other identified HDAC proteins; assay: Change in cellular protein abundance (TMT proteomics) in Kelly cells; assay type: cell-based, human; conditions: 1 μM, 5 hours, vs DMSO
Method: (§1) Lysis buffer (8 M Urea, 50 mM NaCl, 50 mM 4-(2hydroxyethyl)-1-piperazineethanesulfonic acid (EPPS) pH 8.5, protease and phosphatase inhibitors from Roche®) were added to the cell pellets and homogenized by 20 passes through a 21 gauge (1.25 in. long) needle to achieve a cell lysate with a protein concentration between 1-4 mg mL-1. A micro-BCA assay (Pierce™) was used to determine the final protein concentration in the cell lysate. 200 μg of protein for each sample were reduced and alkylated as described in Donovan et al., Elife 7:e38430 (2018).
Proteins were precipitated using methanol/chloroform. Four volumes of methanol were added to the cell lysate, followed by one volume of chloroform, and finally three volumes of water. The mixture was vortexed and centrifuged to separate the chloroform phase from the aqueous phase. […]
Anhydrous ACN was added to each peptide sample to a final concentration of 30% v/v, and labeling was induced with the addition of TMT reagent to each sample at a ratio of 1:4 peptide:TMT label. […] The sample channels were combined at a 1:1:1:1:1:1:1:1:1:1:1 ratio, desalted using Cis solid phase extraction cartridges (Waters®) and analyzed by LC-MS for channel ratio comparison. Samples were then combined using the adjusted volumes determined in the channel ratio analysis and dried down in a speed vacuum. […]

HDAC3 = HDAC3 (Homo sapiens, UniProt O15379); assay: as above; assay type: cell-based; design: relative change in relative protein abundance with treatment of Kelly cells; endogenous in cells; host or cells: Kelly cells; conditions: for HDAC3 protein levels, relative protein abundance compared to DMSO control: scatter plots FIG. 1 and FIG. 3
Sequence of HDAC3 (O15379 whole entry): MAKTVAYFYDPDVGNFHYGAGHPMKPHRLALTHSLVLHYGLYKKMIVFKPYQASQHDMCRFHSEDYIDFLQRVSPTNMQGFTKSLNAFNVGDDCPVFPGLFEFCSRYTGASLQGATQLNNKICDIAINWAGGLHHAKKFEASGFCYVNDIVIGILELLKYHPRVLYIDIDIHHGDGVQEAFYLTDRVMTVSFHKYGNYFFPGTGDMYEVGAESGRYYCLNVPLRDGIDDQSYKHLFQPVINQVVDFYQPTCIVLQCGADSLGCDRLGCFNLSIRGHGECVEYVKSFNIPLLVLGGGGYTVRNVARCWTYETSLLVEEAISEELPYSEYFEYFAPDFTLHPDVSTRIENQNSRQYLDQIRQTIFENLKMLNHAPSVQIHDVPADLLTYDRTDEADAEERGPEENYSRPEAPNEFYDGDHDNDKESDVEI
Method: as §1
Proteins were precipitated using methanol/chloroform. Four volumes of methanol were added to the cell lysate, followed by one volume of chloroform, and finally three volumes of water. The mixture was vortexed and centrifuged to separate the chloroform phase from the aqueous phase. The precipitated protein was washed with three volumes of methanol, centrifuged and the resulting washed precipitated protein was allowed to air dry. The precipitated protein was resuspended in 4 M Urea, 50 mM HEPES pH 7.4, followed by dilution to 1 M urea with the addition of 200 mM EPPS, pH 8. Proteins were first digested with LysC (1:50; enzyme:protein) for 12 hours at room temperature. The LysC digestion was diluted to 0.5 M Urea with 200 mM EPPS pH 8 followed by digestion with trypsin (1:50; enzyme:protein) for 6 hours at 37° C. Tandem mass tag (TMT) reagents (Thermo Fisher Scientific) were dissolved in anhydrous acetonitrile (ACN) according to manufacturer's instructions.
Anhydrous ACN was added to each peptide sample to a final concentration of 30% v/v, and labeling was induced with the addition of TMT reagent to each sample at a ratio of 1:4 peptide:TMT label. The 10-plex labeling reactions were performed for 1.5 hours at room temperature and the reaction quenched by the addition of hydroxylamine to a final concentration of 0.3% for 15 minutes at room temperature. The sample channels were combined at a 1:1:1:1:1:1:1:1:1:1:1 ratio, desalted using Cis solid phase extraction cartridges (Waters®) and analyzed by LC-MS for channel ratio comparison. Samples were then combined using the adjusted volumes determined in the channel ratio analysis and dried down in a speed vacuum. The combined sample was then resuspended in 1% formic acid, and acidified (pH 2-3) before being subjected to desalting with C18 SPE (Sep-Pak®, Waters®). Samples were then offline fractionated into 96 fractions by high pH reverse-phase HPLC (Agilent® LC1260) through an aeris peptide xb-c18 column (Phenomenex®) with mobile phase A containing 5% acetonitrile and 10 mM NH4HCO3 in LC-MS grade H2O, and mobile phase B containing 90% acetonitrile and 10 mM NH4HCO3 in LC-MS grade H2O (both pH 8.0). The 96 resulting fractions were then pooled in a non-continuous manner into 24 fractions and these fractions were used for subsequent mass spectrometry analysis.
Data were collected using an Orbitrap Fusion™ Lumos™ mass spectrometer (Thermo Fisher Scientific, San Jose, Calif., USA) coupled with a Proxeon EASY-nLC™ 1200 LC pump (Thermo Fisher Scientific). Peptides were separated on an EasySpray™ ES803 75 μm inner diameter microcapillary column (ThermoFisher Scientific).
Each analysis used an MS3-based TMT method as described previously. The data were acquired using a mass range of m z 340-1350, resolution 120,000, automatic gain control (AGC) target 1×10^6, maximum injection time 100 ms, dynamic exclusion of 120 seconds for the peptide measurements in the Orbitrap Fusion™ Lumos™ mass spectrometer. Data dependent MS2 spectra were acquired in the ion trap with a normalized collision energy (NCE) set at 55%, AGC target set to 1.5×10^5 and a maximum injection time of 150 ms. […]

VHL = target: T1, VHL (Homo sapiens, UniProt P40337); assay: Cellular VHL engagement assay (BRD4BD2-GFP / mCherry reporter cells); assay type: cell-based; conditions: with 250 nM AT1, 5 h
T1 construct: Cells stably expressing the BRD4BD2-GFP with mCherry reporter (40) were seeded; endogenous in cells
T1 sequence (P40337 whole entry, species assumed): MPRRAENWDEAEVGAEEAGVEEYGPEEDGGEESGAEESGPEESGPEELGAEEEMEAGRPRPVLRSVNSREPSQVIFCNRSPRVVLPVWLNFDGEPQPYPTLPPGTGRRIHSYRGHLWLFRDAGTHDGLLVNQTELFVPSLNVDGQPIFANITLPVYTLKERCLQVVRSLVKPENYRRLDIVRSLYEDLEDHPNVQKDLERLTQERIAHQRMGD
Method: Cells stably expressing the BRD4BD2-GFP with mCherry reporter (40) were seeded at 30-50% confluency in 384-well plates with 50 μL per well of FluoroBrite™ DMEM media (Thermo Fisher Scientific, A18967) supplemented with 10% FBS a day before compound treatment. Compounds and 250 nM AT1((2S,4R)-1-(2R)-2-Acetamido-3-[[6-[2-[(6S)-4-(4-chlorophenyl)-2,3,9-trimethyl-6H-thieno[3,2-f][1,2,4]triazolo[4,3-a][1,4]diazepin-6-yl]acetamido]hexyl]thio]-3-methylbutanoyl]-4-hydroxy-N-[4-(4-methylthiazol-5-yl)benzyl)pyrrolidinine-2-carboxamide) were dispensed using a D300e Digital Dispenser (HP), normalized to 0.5% DMSO, and incubated with the cells for 5 h. The assay plate was imaged immediately using an Acumen® High Content Imager (TTP Labtech) with 488 nm and 561 nm lasers in a […] grid per well format. The resulting images were analyzed using CellProfiler™.
A series of image analysis steps (an ‘image analysis pipeline’) was constructed. First, the red and green channels were aligned and cropped to target the middle of each well (to avoid analysis of the heavily clumped cells at the edges). A background illumination function was calculated for both red and green channels of each well individually and subtracted to correct for illumination variations across the 384-well plate from various sources of error. An additional step was then applied to the green channel to suppress the analysis of large auto fluorescent artifacts and enhance the analysis of cell specific fluorescence by way of selecting for objects under a given size (30 A.U.) and with a given shape (speckles). mCherry-positive cells were then identified in the red channel by filtering for objects 8-60 pixels in diameter and by using intensity to distinguish between clumped objects. The green channel was then segmented into GFP positive and negative areas and objects were labeled as GFP positive if at least 40% of it overlapped with a GFP positive area. The fraction of GFP-positive cells/mCherry-positive cells in each well was then calculated, and the green and red images were rescaled for visualization.

cellular HDAC3 protein levels, change in relative protein abundance (heat map FIG. 2) (HDAC3; 1 μM, 5 hours, vs DMSO)	pIC50 (VHL)	Compound	cellular protein levels of the other identified HDAC proteins (heat map FIG. 2) [1]	HDAC3 protein levels, relative protein abundance compared to DMSO control (HDAC3)
down-regulation	4.93	Cc1ncsc1-c1ccc([C@H](C)NC(=O)[C@@H]2C[C@@H](O)CN2C(=O)[C@@H](NC(=O)CCOCCOCCN(CCc2c[nH]c3ccccc23)Cc2ccc(/C=C/C(=O)NO)cc2)C(C)(C)C)cc1 [Compound 2, (2S,4R)-1-((S)-14-(tert-butyl)-3-(4-((E)-3-(hydroxyamino)-3-oxoprop-1-en-1-yl)benzyl)-1-(1H-indol-3-yl)-12-oxo-6,9-dioxa-3,13-diazapentadecan-15-oyl)-4-hydroxy-N—((S)-1-(4-(4-methylthiazol-5-yl)phenyl)ethyl)pyrrolidine-2-carboxamide]	did not affect	significant and selective reduction
–	5.03	Cc1ncsc1-c1ccc(CNC(=O)[C@@H]2C[C@@H](O)CN2C(=O)[C@@H](NC(=O)C2(F)CC2)C(C)(C)C)c(OCCCCCN(CCc2c[nH]c3ccccc23)Cc2ccc(/C=C/C(=O)NO)cc2)c1 [Compound 7, (2S,4R)—N-(2-((5-((2-(1H-indol-3-yl)ethyl)(4-((E)-3-(hydroxyamino)-3-oxoprop-1-en-1-yl)benzyl)amino)pentyl)oxy)-4-(4-methylthiazol-5-yl)benzyl)-1-((S)-2-(1-fluorocyclopropane-1-carboxamido)-3,3-dimethylbutanoyl)-4-hydroxypyrrolidine-2-carboxamide]	–	promote degradation; also recorded: significant and selective reduction
